Results as given in a melting point compilation (Tetko et al.; mined from patent text by program, amines drawn as free bases though some values may be those of a salt).

SMILES	melting point
COc1ccc(CNC(=O)Nc2ccc(CN3C(=O)[C@H]4CCC[C@H]4N(C(=O)CN4C(=O)c5ccccc5C4=O)c4ccccc43)cc2)cc1 (relative stereo)	156 to 158 °C
c1cnc(NC2CCN(C3CCCC3)CC2)nc1	118 °C
COc1nsc(N2CCN(c3ccccn3)CC2)n1	144 to 145 °C
N#Cc1c(Br)c(Br)n(O)c1-c1ccc(Cl)cc1	208 to 209 °C
CCOC(=O)C1C(=O)NCC1CCc1ccc(C(=O)OCC(C)C)cc1 (stereo unspecified)	98 to 104 °C
Cc1nc(N2CCN(Cc3ccc(F)cc3)C2=O)sc1C(=O)NCc1ccc(C(F)F)o1	173 to 174 °C
CC(C)(O)/C=C\C(C)(C)O	64 °C
COC(=O)C(=O)Nc1cccc(C(=O)Nc2nnn[nH]2)c1	253 to 254 °C
Cc1cc(Nc2ccccc2C(=O)O)n(Cc2ccncc2)n1	235 to 238 °C
COc1cc2c(cc1C(F)(F)F)N(C(=O)Nc1cncc(Br)c1)CC2	220 to 222 °C
Cn1ncc(N(CCCCl)Cc2ccccc2)c(Cl)c1=O	92 to 93 °C
COc1ccc(-c2[nH]c(-c3cccc4ccccc34)nc2C(=O)Nc2nccs2)cc1	198 to 200 °C
COc1ccc(-c2c3c(c(C)c4ccc(OC)cc24)C(=O)NC3=O)cc1	282 to 284 °C
CCCCC1(CCCC)NC(c2nc(-c3ccccc3)cs2)Cc2c1[nH]c1ccccc21 (stereo unspecified)	134 to 136 °C
O=C(CCC(O)c1cccs1)Nc1cccc2cc(-c3nccs3)[nH]c12 (stereo unspecified)	155 to 157 °C
CC(C)C(=O)N1C2=NC(C)(C)N(C)C(=O)N2c2ccccc21	99 to 102 °C
COCCOc1cc(Cc2cnc(N)nc2N)cc2cccnc12	253 to 255 °C
CC(C)(C)[Si](C)(C)Oc1ccc2c(c1)Oc1ccccc1C2=C1C2CC3CC(C2)CC1C3	137 °C
Cc1nc2c([nH]c(=O)c3ccccc32)s1	310 to 320 °C
COc1cc(C2C3=C(COC3=S)N(Cc3ccccc3)c3cc4c(cc32)OCO4)cc(OC)c1OC (stereo unspecified)	130 °C
CCOc1cc(Cn2cc(CCC(=O)O)c(-c3ccccc3)c2)cc(OCc2csc(-c3ccccc3)n2)c1	109 to 110 °C
Cc1[nH]c2cccnc2c1-c1ccc(F)cc1	199 to 206 °C
CCOC(=O)CCc1cc(C(=O)c2cccc(C(=O)OCC)c2)ccc1O	68 to 70 °C
O=C1NC(c2ccccc2)(c2ccccc2)C(=O)N1COCc1ccccc1	151 to 152 °C

SMILES	melting point
NC(=O)N(O)C1C=C(c2cccc(Oc3ccc(Cl)cc3)c2)CC1 (single isomer, unassigned; (+))	143 to 144 °C
CCOc1ccc(-c2nc(CCC(=O)c3ccccc3C#N)cs2)cc1OCC	114 to 115 °C
N#Cc1c(N)nc2ccc(N3CCOCC3)cc2c1O	291 °C
COc1ccc(C2(CCN3CCC(c4nc5ccccc5s4)CC3)CCN(C(=O)c3ccccc3)C2)cc1OC (stereo unspecified)	60 to 62 °C
CCCCOc1ccc2cc(C(C)NC(N)=O)ccc2c1 (stereo unspecified)	135 to 137 °C
COc1cc(OC)nc(-n2nc(C)oc2=O)n1	158 °C
Cc1nc(-c2ccc(Cl)cc2)n(-c2ccc(S(N)(=O)=O)cc2)n1	247 to 249 °C
Oc1ccc2c(c1)CCc1c-2oc2cc(O)ccc12	219 to 220 °C
O=C(NC(CCl)c1ccc(-c2ccc(SC(F)F)cc2)cc1)c1c(F)cccc1F (stereo unspecified)	146 to 147 °C
Cc1cc(Cl)ccc1OCC(=O)N1Cc2cccn2Cc2ccccc21	166 to 167 °C
O=C(CC(Cc1ccccc1)(C(=O)O)C(=O)O)c1cccc(C(F)(F)F)c1	145 to 147 °C
Cc1nn(-c2cccnc2)c(-c2cccc(Cl)c2)c1CC(=O)O	163 °C
N#CCc1cc(-c2ccc(Cl)cc2)n(-c2ccc(S(N)(=O)=O)cc2)n1	212 to 214 °C
CC(=O)C(=NO)C(N)=O	96 to 97 °C
COC(=O)C(Oc1ccc(C(C)(C)C)cc1)c1ccc(Oc2ccc(Cl)cc2)cc1 (stereo unspecified)	118 to 120 °C
CC(=O)Oc1cccc(C(=O)NCCO[N+](=O)[O-])c1	89 to 91 °C
OCC1COC(Cc2nc[nH]n2)(c2ccc(Cl)cc2)O1 (stereo unspecified)	115 to 117 °C
CNN(C)C(=S)Nc1ccc(Cl)cc1	103 to 104 °C
CC(C)(C)c1ccc(SCCCCCOc2ccc(C3=C(c4ccccc4)CCCc4cc(O)ccc43)cc2)cc1	139 °C
CC(=O)OC(c1nccs1)(c1nccs1)C(F)(F)F	82 to 84 °C
Nc1ccccc1S(=O)c1nc2cc(Cl)ccc2[nH]1 (stereo unspecified)	176 to 178 °C
COc1ccc(C(CBr)(OC)OC)cc1	52 to 53 °C
COc1cc(-c2nc(-c3ccc(N(C)C)cc3)c(C)s2)cc(OC)c1O	230 to 233 °C
CCc1ccc(-n2nc(Cl)cc2-c2ccc(S(C)(=O)=O)cc2)cc1N	158 to 160 °C

SMILES	melting point
Cn1c(=Nc2cccnc2)sc2ncccc2c1=O	160 °C
CC(=O)Nc1ccc(C2=NNC(=O)NC2C)cc1 (stereo unspecified)	272 to 273 °C
CCOC(=O)C(=CNc1ncc(OC)c2ccccc12)C(=O)OCC	150 to 153 °C
CNC(=O)Nc1scc(C(C)C)c1C#N	179 to 181 °C
Cc1c(C(=O)Nc2ccc(N3CCN(C4CCOCC4)CC3)c(C#N)c2)cnn1-c1ccccc1	227 °C
O=[N+]([O-])c1cn2c(n1)OC[C@@H](OCC#Cc1ccc(Br)cc1)C2	160 to 162 °C
CN(C)CC(=O)N1CCN(Cc2ccc3c(c2)Cc2c(-c4cccs4)n[nH]c2-3)CC1	193 to 197 °C
O=C(NS(=O)(=O)c1ccccc1-c1ccc(Cn2c(CCCC(F)(F)F)nn(-c3ccccc3C(F)(F)F)c2=O)cc1)c1ccccc1	197 to 199 °C
CC(=O)C1CCC2C3CC=C4C=CCCC4(C)C3CCC12C (stereo unspecified)	135 to 136 °C
O=C(C=Cc1ccc(Cl)cc1)NN1CC(=O)NC1=O	230 to 235 °C
COc1ccccc1Oc1c(Cl)nc(-c2ncccn2)nc1OCCO	133 to 137 °C
Cc1c(Br)cccc1NCc1cc(C(C)(C)C)sc1C(=O)O	150 to 152 °C
O=S(=O)(CCO)CCCS(=O)(=O)CCO	158 to 161 °C
O=[N+]([O-])c1ccc(NCCS(=O)(=O)NCCCOc2cccc(CN3CCCCC3)c2)cc1	140 to 142 °C
Cc1nc2c(OCc3c(Cl)ccc(N(C)C(=O)CNC(=O)CN4C(=O)c5ccccc5C4=O)c3Cl)cccn2c1Br	148 to 150 °C
COC(=O)CNC(=O)n1ccc(O)cc1=O	124 to 126 °C
CCCCCCCCOC(=O)C(N)C=CCP(=O)(O)O (stereo unspecified)	161 to 162 °C
CSc1nn2c(Cl)cc(CN3CCN(C)CC3)nc2c1S(=O)(=O)c1ccccc1	113 to 116 °C
CC(C)C1(C#N)c2ccccc2C=CN1C(=O)c1ccccc1 (stereo unspecified)	124 to 126 °C
CC(CCCc1ccccc1)c1cc2c(cc1O)C1C(=O)CCCC1C(C)(C)O2 (stereo unspecified)	108 to 115 °C
c1ccc(-c2ccc(CN3CCN(c4ccccc4)CC3)s2)cc1	88 °C
CC(C)Cn1c(=O)[nH]c2c(C(N)=O)nc(-c3cccc(O)c3)nc21	374 to 376 °C
CC(=O)OC(C(Oc1ccccc1)n1ccnc1)C(C)(C)C (stereo unspecified)	114 to 121 °C
